Activity calls are given as the source filed them. No cut-off for these calls is given here.
tested on: Rattus norvegicus; assay: Antihypertensive activity in hypertensive Rattus norvegicus Sprague-Dawley (rat) model assessed as reduction in mean systolic blood pressure level at 0.3 mg/kg, ip after 1 hr by non-invasive tail cuff method; assay type: functional, organism-based; parameters: dose 0.3 mg/kg; conditions: Artery

Question: How did the Activity turn out when `CCN(CC)c1ccc(/N=N\c2ccc(S(=O)(=O)Nc3nc(C)cc(C)n3)cc2)cc1` was run?
Answer: The Activity was “Active”.

Question: `Cc1cc(C)nc(NS(=O)(=O)c2ccc(/N=N\c3ccc(N(C)C)cc3)cc2)n1` was tested. Which Activity did it give?
Answer: The Activity was “Active”.

Question: `CCN(Cc1ccccc1)c1ccc(/N=N\c2ccc(S(=O)(=O)Nc3nc(C)cc(C)n3)cc2)cc1` was tested. Which Activity did it give?
Answer: Its Activity is “Active”.

Question: How did the Activity turn out when `COc1cc2nc(N3CCN(C(=O)c4ccco4)CC3)nc(N)c2cc1OC` was run?
Answer: The Activity was “Active”.

Question: Which Activity does the source give for `CCNc1ccc(/N=N\c2ccc(S(=O)(=O)Nc3nc(C)cc(C)n3)cc2)cc1` here?
Answer: The Activity was “Active”.
